Data reported in patent US20220169598A1, “HALOGENATED PHENYLSULFONAMIDE HYDROXAMIC ACID COMPOUNDS, COMPOSITIONS AND USES THEREOF AS SELECTIVE HDAC6 INHIBITORS” (2681603 ONTARIO INC., priority 2019, published 2022).

Assays:
[1] = test system: MV-4-11; test: Apoptosis induction by FACS (FITC-Annexin V / PI); assay type: cell-based; conditions: MV-4-11, increasing concentration of inhibitor
[2] = target: HDAC5 (Homo sapiens, UniProt Q9UQL6); test: in vitro activity-based HDAC assay; assay type: biochemical; conditions: human HDAC isoform panel, Table 1
[3] = target: HDAC8 (Homo sapiens, UniProt Q9BY41); test: in vitro activity-based HDAC assay; assay type: biochemical; conditions: human HDAC isoform panel, Table 1
[4] = target: HDAC2 (Homo sapiens, UniProt Q92769); test: in vitro activity-based HDAC assay; assay type: biochemical; conditions: human HDAC isoform panel, Table 1
[5] = target: HDAC4 (Homo sapiens, UniProt P56524); test: in vitro activity-based HDAC assay; assay type: biochemical; conditions: human HDAC isoform panel, Table 1
[6] = target: HDAC9 (Homo sapiens, UniProt Q9UKV0); test: in vitro activity-based HDAC assay; assay type: biochemical; conditions: human HDAC isoform panel, Table 1
[7] = target: T1, HDAC7 (Homo sapiens, UniProt Q8WUI4); test: in vitro activity-based HDAC assay; assay type: biochemical; conditions: human HDAC isoform panel, Table 1
T1 sequence (Q8WUI4 1-952): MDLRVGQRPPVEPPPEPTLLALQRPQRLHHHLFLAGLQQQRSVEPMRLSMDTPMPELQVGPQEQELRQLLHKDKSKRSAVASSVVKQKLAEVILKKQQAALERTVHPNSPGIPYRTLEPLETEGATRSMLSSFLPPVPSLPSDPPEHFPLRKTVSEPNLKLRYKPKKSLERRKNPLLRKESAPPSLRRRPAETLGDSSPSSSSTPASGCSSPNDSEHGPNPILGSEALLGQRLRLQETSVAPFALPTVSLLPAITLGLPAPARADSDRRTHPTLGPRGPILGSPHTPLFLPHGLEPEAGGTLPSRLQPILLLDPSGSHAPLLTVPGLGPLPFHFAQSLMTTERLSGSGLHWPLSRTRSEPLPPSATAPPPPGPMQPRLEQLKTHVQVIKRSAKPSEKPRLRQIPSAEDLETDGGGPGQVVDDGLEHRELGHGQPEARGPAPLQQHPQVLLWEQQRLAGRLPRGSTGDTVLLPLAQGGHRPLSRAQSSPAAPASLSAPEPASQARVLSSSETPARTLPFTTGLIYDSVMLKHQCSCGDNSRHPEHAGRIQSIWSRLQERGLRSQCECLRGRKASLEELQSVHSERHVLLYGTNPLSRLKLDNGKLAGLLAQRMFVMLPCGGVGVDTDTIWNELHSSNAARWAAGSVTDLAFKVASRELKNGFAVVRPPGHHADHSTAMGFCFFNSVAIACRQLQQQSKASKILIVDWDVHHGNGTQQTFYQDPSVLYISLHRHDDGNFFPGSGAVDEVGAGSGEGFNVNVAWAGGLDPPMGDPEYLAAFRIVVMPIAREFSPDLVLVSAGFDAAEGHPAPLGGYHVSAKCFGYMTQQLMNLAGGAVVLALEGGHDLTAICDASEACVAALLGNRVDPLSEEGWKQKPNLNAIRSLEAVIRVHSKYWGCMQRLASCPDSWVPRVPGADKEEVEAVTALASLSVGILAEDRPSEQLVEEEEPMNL

[8] = target: T2, HDAC10 (Homo sapiens, UniProt Q969S8); test: in vitro activity-based HDAC assay; assay type: biochemical; conditions: human HDAC isoform panel, Table 1
T2 sequence (Q969S8 1-669): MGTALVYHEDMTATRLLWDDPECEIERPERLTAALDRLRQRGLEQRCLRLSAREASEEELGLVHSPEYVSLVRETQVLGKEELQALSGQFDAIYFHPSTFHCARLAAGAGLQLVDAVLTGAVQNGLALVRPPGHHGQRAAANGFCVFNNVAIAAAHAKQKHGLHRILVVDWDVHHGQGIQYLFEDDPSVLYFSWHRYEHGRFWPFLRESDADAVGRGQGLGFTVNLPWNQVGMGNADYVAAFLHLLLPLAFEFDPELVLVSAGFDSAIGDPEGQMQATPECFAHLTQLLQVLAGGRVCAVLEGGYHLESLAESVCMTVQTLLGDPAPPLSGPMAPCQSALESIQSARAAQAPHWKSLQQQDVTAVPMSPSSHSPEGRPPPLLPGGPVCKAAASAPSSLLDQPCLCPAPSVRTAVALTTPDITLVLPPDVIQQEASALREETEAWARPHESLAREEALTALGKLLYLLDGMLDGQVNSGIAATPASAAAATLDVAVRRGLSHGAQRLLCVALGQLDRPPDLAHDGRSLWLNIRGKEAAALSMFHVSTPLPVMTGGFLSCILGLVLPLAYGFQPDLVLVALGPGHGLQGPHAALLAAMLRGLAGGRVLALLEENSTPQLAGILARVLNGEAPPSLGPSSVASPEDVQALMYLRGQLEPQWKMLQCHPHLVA

[9] = target: HDAC11 (Homo sapiens, UniProt Q96DB2); test: in vitro activity-based HDAC assay; assay type: biochemical; conditions: human HDAC isoform panel, Table 1
Chain of HDAC11 (Q96DB2 whole entry, canonical isoform): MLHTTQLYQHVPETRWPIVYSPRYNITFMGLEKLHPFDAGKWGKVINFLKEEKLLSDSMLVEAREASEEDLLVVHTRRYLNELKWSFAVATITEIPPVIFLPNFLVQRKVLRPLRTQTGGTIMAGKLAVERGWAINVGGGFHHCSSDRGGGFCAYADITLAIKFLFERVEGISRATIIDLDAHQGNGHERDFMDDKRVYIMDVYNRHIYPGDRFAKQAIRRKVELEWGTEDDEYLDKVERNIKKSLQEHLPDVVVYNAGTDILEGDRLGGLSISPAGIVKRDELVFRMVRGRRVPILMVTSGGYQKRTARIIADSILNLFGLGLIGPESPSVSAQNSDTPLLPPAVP

Chain of HDAC5 (Q9UQL6 whole entry, canonical isoform): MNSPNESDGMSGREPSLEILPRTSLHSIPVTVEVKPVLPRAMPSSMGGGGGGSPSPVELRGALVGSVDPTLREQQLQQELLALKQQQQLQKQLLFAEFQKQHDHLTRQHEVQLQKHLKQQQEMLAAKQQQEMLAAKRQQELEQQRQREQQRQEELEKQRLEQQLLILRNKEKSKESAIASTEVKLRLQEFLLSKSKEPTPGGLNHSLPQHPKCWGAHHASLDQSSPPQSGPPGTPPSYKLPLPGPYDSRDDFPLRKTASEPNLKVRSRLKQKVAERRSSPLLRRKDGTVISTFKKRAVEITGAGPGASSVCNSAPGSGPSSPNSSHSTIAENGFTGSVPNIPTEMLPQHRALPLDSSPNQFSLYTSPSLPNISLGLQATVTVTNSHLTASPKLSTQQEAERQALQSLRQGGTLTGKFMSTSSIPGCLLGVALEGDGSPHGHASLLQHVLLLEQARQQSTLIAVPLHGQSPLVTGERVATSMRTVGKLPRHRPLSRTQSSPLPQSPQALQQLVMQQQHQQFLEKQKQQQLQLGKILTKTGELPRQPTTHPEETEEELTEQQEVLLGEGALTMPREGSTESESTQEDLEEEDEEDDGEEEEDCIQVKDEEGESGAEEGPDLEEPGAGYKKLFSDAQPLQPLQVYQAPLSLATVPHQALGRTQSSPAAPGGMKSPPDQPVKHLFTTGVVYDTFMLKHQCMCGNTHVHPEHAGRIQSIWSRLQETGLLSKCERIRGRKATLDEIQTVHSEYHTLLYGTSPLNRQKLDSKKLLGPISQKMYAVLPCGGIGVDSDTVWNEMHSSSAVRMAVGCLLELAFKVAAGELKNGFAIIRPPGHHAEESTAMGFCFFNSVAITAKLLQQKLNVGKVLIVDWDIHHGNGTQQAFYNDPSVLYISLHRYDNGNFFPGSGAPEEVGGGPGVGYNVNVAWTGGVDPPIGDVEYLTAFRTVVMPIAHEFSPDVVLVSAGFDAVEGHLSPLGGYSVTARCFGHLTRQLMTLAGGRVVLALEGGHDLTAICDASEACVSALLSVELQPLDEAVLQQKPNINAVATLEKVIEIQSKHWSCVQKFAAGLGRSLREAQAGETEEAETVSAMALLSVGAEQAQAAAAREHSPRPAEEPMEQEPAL
Chain of HDAC8 (Q9BY41 whole entry, canonical isoform): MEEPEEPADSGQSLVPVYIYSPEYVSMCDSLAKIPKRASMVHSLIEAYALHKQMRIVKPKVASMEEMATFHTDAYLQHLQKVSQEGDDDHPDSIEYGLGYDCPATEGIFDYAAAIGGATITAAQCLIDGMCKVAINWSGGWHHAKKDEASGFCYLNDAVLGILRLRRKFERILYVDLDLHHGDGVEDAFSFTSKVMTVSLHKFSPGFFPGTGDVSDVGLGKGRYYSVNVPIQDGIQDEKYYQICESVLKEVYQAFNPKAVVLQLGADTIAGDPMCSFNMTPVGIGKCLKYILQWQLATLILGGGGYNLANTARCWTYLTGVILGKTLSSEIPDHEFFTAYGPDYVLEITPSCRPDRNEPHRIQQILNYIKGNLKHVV
Chain of HDAC4 (P56524 whole entry, canonical isoform): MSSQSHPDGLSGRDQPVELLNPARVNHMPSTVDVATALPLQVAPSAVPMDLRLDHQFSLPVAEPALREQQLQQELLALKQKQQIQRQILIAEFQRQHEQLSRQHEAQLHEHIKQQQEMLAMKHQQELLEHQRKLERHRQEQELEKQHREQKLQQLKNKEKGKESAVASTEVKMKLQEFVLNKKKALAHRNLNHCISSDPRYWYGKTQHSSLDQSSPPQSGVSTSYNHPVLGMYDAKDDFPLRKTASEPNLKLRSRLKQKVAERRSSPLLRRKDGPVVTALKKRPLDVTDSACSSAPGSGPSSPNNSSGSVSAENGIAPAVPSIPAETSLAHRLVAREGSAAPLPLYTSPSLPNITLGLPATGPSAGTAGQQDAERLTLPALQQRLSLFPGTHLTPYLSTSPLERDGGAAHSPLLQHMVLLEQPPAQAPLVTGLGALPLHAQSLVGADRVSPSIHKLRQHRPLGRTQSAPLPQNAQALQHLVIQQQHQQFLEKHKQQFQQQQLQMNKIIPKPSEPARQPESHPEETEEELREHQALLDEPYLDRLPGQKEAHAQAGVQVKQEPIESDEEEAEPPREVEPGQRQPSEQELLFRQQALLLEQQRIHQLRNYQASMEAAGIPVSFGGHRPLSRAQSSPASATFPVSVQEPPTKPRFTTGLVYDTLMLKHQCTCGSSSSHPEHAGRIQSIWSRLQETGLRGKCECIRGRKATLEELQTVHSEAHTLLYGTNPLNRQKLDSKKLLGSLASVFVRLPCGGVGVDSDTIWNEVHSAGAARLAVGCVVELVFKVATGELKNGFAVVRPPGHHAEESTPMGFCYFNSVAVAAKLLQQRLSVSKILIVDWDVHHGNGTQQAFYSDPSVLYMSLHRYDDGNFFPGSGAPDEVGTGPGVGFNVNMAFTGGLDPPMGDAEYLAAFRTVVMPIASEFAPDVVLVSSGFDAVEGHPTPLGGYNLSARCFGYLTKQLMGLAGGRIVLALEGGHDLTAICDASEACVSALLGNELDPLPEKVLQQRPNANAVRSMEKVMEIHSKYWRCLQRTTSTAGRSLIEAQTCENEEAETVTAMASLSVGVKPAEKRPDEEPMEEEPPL
Chain of HDAC9 (Q9UKV0 whole entry, canonical isoform): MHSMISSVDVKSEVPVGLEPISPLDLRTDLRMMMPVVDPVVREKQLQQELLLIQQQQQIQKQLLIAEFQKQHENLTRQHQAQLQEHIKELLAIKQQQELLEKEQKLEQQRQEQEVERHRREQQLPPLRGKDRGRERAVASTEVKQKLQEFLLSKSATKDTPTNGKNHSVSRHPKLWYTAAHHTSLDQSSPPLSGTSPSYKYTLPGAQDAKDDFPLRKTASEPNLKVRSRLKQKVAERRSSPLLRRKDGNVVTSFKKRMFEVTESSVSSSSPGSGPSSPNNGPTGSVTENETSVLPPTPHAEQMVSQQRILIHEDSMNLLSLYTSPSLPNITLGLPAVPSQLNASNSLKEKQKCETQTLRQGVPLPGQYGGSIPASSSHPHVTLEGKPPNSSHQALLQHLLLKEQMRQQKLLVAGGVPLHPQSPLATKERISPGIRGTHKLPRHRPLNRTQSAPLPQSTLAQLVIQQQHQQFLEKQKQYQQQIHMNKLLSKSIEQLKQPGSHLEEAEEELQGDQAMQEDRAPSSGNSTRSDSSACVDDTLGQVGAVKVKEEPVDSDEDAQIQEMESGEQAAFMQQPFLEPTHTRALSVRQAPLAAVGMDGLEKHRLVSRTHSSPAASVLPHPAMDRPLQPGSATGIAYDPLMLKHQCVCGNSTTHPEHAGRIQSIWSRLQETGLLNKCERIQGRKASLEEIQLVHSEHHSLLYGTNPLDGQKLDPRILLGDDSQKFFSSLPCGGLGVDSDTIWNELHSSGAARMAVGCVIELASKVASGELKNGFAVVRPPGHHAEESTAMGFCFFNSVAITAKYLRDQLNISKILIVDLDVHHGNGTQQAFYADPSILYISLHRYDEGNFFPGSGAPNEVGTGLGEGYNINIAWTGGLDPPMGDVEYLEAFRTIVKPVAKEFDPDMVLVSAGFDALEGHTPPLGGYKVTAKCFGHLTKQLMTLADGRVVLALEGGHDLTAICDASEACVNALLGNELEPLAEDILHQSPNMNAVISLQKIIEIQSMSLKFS
Chain of HDAC2 (Q92769 whole entry, canonical isoform): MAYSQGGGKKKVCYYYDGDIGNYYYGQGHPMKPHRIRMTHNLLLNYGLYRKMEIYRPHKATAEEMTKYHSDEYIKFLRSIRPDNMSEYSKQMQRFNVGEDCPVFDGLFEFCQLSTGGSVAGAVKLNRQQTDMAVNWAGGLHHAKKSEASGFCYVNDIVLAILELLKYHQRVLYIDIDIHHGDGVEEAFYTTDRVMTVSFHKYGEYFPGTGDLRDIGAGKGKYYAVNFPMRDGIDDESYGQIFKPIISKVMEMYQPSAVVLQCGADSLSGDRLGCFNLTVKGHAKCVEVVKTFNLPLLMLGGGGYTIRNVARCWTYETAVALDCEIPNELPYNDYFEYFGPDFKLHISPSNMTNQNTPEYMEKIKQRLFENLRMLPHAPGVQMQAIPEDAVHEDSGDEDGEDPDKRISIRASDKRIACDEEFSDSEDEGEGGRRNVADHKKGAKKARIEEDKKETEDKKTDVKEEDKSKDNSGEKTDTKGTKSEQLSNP

Row | Compound | apoptotic-inducting potential (FACS) [1] | IC50 [2] | IC50 [3] | IC50 [4] | IC50 [5] | IC50 [6] | IC50 [7] | IC50 [8] | IC50 [9]
1 | O=C(NO)c1ccc(CN(C2CC2)S(=O)(=O)c2cc(F)c(F)c(F)c2F)cc1 [Compound I-13, 4-((N-cyclopropyl-2,3,4,5-tetrafluorophenylsulfonamido)methyl)-N-hydroxybenzamide] | larger populations of cells undergoing early apoptosis | > 1000 nM | 334 nM | > 1000 nM | > 1000 nM | > 1000 nM | > 1000 nM | > 1000 nM | > 1000 nM
2 | O=C(NO)c1ccc(CN(Cc2cccnc2)S(=O)(=O)c2cc(F)c(F)c(F)c2F)cc1 [Compound I-18, N-hydroxy-4-((2,3,4,5-tetrafluoro-N-(pyridin-3-ylmethyl)phenylsulfonamido)methyl)benzamide] | larger populations of cells undergoing early apoptosis | > 1000 nM | 316 nM | > 1000 nM | > 1000 nM | > 1000 nM | > 1000 nM | 551 nM | > 1000 nM
